Experimental findings from patent US7098204B2 (C.N.R.S., priority 1999, dated 2006) are described below.

The target of test [1] is topoisomerase I (Homo sapiens, UniProt P11387). Nature of the test: topoisomerase I assay. The format is biochemical. Conditions: −(x) = no effect at the highest dose tested (in parentheses). As for the experimental part: Enzyme activities were assayed as described in the Experimental Procedures section, in the presence of increasing HD concentrations. IC50's were calculated from the dose-response curves.−, no effect at the highest dose tested (in parentheses).

Test [2] has as its target protein kinase C β1 (Homo sapiens, UniProt P05771). Nature of the test: protein kinase C β1 assay. It is filed as biochemical. The note with it: 15 μM ATP. The method, then:
(§1) Kinases activities were assayed in Buffer A or C (unless otherwise stated), at 30° C., at a final ATP concentration of 15 μM. Blank values were subtracted and activities calculated as pmoles of phosphate incorporated for a 10 min. incubation (usually expressed in % of the maximal activity, i.e. without inhibitors). Controls were performed with appropriate dilutions of Me2SO. In some cases phosphorylation of the substrate was assessed by autoradiography after SDS-PAGE. IC50 values were estimated from the dose-response curves. • CDK1/cyclin B was extracted in homogenisation buffer from M phase starfish (Marthasterias glacialis) oocytes and purified by affinity chromatography on p9^CKShs1-Sepharose beads, from which it was eluted by free p9^CKShs1 as described. The kinase activity was assayed in buffer C, with 1 mg histone H1/ml, in the presence of 15 μM [γ-^32P] ATP (3,000 Ci/mmol; 1 mCi/ml) in a final volume of 30 μl. After 10 min. incubation at 30° C., 25 μl aliquots of supernatant were spotted onto 2.5×3 cm pieces of Whatman P81 phosphocellulose paper, and, 20 sec. later, the filters were washed five times (for at least 5 min. each time) in a solution of 10 ml phosphoric acid/liter of water. The wet filters were counted in the presence of 1 ml ACS (Amersham) scintillation fluid. • GSK-3β was either purified from rabbit muscle or expressed in and purified from insect Sf9 cells. […]

The target in test [3] is protein kinase C β2 (Homo sapiens, UniProt P05771). Nature of the test: protein kinase C β2 assay. It is filed as biochemical. The note with it: 15 μM ATP. The method, then:
as §1

The target of test [4] is c-Jun N-terminal kinase. In words: c-Jun N-terminal kinase assay. It is filed as biochemical. Conditions: 15 μM ATP. The method, then:
as §1

The target of test [5] is protein kinase C ε (Homo sapiens, UniProt Q02156). In words: protein kinase C ε assay. The format is biochemical. Conditions: 15 μM ATP. As for the experimental part:
as §1

Test [6] addresses CDK1/cyclin B. In words: CDK1/cyclin B kinetic experiments varying ATP and HD. The format is biochemical, starfish (Marthasterias glacialis). As for the experimental part: Blank values were subtracted and activities calculated as pmoles of phosphate incorporated for a 10 min. incubation (usually expressed in % of the maximal activity, i.e. without inhibitors). Controls were performed with appropriate dilutions of Me2SO. In some cases phosphorylation of the substrate was assessed by autoradiography after SDS-PAGE. IC50 values were estimated from the dose-response curves. • CDK1/cyclin B was extracted in homogenisation buffer from M phase starfish (Marthasterias glacialis) oocytes and purified by affinity chromatography on p9^CKShs1-Sepharose beads, from which it was eluted by free p9^CKShs1 as described. […] ATP (3,000 Ci/mmol; 1 mCi/ml) in a final volume of 30 μl. After 10 min. incubation at 30° C., 25 μl aliquots of supernatant were spotted onto 2.5×3 cm pieces of Whatman P81 phosphocellulose paper, and, 20 sec. later, the filters were washed five times (for at least 5 min. each time) in a solution of 10 ml phosphoric acid/liter of water. The wet filters were counted in the presence of 1 ml ACS (Amersham) scintillation fluid. • GSK-3β was either purified from rabbit muscle or expressed in and purified from insect Sf9 cells. […] ATP (3,000 Ci/mmol; 1 mCi/ml) in a final volume of 30 μl. […]

pIC50, pKi: −log10 of the molar value.

Chain of protein kinase C ε (Q02156 whole entry): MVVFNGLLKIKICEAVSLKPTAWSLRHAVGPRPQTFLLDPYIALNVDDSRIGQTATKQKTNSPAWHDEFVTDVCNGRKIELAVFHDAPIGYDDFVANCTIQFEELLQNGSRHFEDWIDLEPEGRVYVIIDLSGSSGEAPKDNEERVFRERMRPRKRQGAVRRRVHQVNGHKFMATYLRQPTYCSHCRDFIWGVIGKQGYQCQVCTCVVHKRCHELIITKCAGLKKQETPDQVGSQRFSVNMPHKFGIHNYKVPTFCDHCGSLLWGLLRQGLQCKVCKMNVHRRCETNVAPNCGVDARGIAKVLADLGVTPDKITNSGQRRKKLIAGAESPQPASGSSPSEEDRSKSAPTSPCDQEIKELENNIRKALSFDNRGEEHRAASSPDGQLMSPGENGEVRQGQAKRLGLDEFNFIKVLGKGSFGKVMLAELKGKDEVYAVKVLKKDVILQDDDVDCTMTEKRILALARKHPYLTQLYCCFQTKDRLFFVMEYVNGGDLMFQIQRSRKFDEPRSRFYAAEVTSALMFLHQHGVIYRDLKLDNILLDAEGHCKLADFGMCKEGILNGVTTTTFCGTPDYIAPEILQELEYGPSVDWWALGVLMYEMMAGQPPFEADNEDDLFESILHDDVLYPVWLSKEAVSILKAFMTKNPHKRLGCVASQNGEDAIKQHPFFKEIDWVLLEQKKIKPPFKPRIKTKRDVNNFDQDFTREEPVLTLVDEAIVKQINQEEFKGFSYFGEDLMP
Chain of topoisomerase I (P11387 whole entry): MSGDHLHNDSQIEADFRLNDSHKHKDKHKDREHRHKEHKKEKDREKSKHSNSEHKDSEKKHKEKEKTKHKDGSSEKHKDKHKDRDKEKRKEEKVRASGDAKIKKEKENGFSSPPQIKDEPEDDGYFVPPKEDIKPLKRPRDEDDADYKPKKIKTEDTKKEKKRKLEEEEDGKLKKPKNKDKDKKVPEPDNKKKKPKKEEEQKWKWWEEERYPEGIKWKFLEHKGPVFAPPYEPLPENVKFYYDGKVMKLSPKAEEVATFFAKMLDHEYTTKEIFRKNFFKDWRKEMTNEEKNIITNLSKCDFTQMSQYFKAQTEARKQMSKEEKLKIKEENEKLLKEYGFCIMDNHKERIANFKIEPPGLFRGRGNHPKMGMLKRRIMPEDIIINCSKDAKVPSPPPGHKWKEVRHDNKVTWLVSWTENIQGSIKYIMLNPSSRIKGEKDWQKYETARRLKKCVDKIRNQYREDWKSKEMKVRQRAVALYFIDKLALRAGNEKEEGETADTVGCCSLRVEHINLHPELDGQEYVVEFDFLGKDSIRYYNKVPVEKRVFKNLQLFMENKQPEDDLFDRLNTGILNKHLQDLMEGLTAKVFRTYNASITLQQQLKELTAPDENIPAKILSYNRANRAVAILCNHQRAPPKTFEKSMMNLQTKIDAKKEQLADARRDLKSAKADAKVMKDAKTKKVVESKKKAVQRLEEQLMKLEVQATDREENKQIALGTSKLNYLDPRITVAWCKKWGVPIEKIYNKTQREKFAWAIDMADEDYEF
Chain of protein kinase C β1 (P05771 whole entry): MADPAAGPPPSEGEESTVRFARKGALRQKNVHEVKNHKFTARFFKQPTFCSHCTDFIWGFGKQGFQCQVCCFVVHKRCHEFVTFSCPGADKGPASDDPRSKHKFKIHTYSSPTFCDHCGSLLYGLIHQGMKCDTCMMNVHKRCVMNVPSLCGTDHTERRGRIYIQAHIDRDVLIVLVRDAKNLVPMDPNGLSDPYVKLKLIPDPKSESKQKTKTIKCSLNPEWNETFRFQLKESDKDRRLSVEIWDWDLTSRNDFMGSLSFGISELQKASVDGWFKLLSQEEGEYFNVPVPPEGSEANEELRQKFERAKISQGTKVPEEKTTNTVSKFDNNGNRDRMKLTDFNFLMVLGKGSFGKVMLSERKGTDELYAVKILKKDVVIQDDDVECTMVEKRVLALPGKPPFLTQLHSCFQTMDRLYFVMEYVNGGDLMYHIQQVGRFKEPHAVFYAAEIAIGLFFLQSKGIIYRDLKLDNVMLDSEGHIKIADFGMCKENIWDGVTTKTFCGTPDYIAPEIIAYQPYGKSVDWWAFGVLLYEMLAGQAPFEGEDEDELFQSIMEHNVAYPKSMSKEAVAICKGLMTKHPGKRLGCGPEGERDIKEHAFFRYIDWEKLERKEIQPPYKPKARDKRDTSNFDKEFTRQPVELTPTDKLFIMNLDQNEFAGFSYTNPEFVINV
Chain of protein kinase C β2 (P05771 1-673 isoform P05771-2): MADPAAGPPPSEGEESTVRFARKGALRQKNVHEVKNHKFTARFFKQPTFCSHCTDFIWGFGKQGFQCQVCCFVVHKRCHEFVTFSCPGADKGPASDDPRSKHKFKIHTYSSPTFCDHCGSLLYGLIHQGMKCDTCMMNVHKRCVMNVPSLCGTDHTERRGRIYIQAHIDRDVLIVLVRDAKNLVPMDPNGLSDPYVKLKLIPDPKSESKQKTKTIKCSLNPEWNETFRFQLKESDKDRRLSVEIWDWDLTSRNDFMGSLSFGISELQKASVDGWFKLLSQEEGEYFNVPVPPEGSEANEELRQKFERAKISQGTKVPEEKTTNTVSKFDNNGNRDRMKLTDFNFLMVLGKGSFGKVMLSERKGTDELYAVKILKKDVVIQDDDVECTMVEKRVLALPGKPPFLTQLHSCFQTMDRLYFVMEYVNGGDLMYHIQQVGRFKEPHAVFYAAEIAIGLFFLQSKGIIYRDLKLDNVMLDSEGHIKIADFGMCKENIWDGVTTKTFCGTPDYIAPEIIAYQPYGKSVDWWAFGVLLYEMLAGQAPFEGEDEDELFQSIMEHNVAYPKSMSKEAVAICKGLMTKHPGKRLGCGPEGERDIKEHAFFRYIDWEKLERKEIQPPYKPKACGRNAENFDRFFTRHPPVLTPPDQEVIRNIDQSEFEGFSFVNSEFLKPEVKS

For the compound `NC1=NC(=O)C(=C2CCNC(=O)c3[nH]c(Br)cc32)N1` [hymenialdisine, 4-(2-amino-4-oxo-2-imidazolin-5-ylidene)-2-bromo-4,5,6,7-tetrahydropyrrolo (2,3-c) azepine-8-one], the pIC50 (in general, −log10 of the IC50, conventionally taken in molar units) in test [1] was below 5.00; in test [2], 5.92; in test [3], 5.77; in test [4], 5.07; in test [5], 5.19. Moreover, in test [6] (ATP 0.05 to 0.25 mM, histone H1 0.7 mg/ml, read-out: apparent inhibition constant (Ki)), the pKi (usually the Ki on a negative log10 scale, so that one unit is a factor of ten) is 7.30. Moreover, the mechanism of inhibition result in test [6] (double-reciprocal plots) is on record as “competitive inhibitor for ATP”.
